# In patent US12492232B2, “Methods for producing proteins” (South Australian Health and Medical Research Institute …, priority 2018, dated 2025):
# Columns and labels:
# [1] = tested on: CHO cells stably expressing Gaussia luciferase (GLuc); assay: Secreted Gaussia luciferase assay in CHO cells stably expressing GLuc transfected with Rheb vectors; format: cell-based
# Method: CHO cells stably expressing Firefly luciferase (FLuc) or Gaussia luciferase (GLuc) as indicated were transfected using Lipofectamine3000 with an empty vector (EV) or vectors for Rheb WT, S21L, T23M, G29S, Y35N or E40K and also treated with the mTOR inhibitor AZD8055 at 100 nM for the total duration where indicated. Fluc and GLuc assays were performed 24 h after transfection and then every 48 h for 7 days. Assay results are normalised to cell number. GLuc-CHO cells were harvested for SDS-PAGE and Western Blot analysis at the 168 h (7-day) time-point to probe for intracellular GLuc, FLAG (Rheb) and actin, as ‘loading control’. […] However, Rheb-T23M and —Y35N caused a significant 3-fold increase in secreted Gaussia luciferase that was also seen with E40K and was prevented by treatment with AZD8055 (C/D [histogram of day 7]). In (E), secreted GLuc was monitored every 4 h from 24 h to 60 h showing the rate of secretion of GLuc was higher when Rheb-T23M is expressed as compared to Rheb-Y35N. The pattern for intracellular levels of Gaussia luciferase (assessed by immunoblot of cell lysates harvested at 7 days post transfection) more closely resemble those intracellular firefly luciferase (F) with little change compared to either the empty vector or WT while still retaining heightened mTORC1 signalling as indicated by the elevated levels of P-S6K1 Thr389 compared to cells transfected with the empty vector. CHO cells expressing Rheb-T23M, Y35N and E40K show a small increases in general protein synthesis but a marked increase in secreted Gaussia protein that is blocked by mTOR inhibition. Thus, Rheb[T23M] selectively promotes production of the secreted protein GLuc in a process that requires mTOR signalling.
# Constructs were introduced into CHO cells using Lipofectamine3000 (Life Technologies) according to the manufacturer's protocol. Cell lines stably expressing secreted luciferase were generated by cloning the GLuc gene with a signal sequence from Nanolight Technology (see paper sent with this version) and cloning this into the pcDNA4 commercially available vector where gene expression was driven by a CMV promoter. The subsequent vectors were transfected, using lipofectamine, into CHO-S freestyle suspension cells and grown in CD-CHO media and then stable transfectant pools selected by addition of zeocin antibiotic. Once stable pools had emerged these were subjected to limited dilution cloning to obtain a range of pools with different secreted GLuc expression levels. Methods as are described, for example, in Josse et al. (2009) Biotechnology and Bioengineering 105: 556-566.
# For Gaussia luciferase, we employed the BioLux® Gaussia Luciferase Assay Kit (New England Biolabs (NEB), Cat. No. E3300S) and for firefly luciferase the Luciferase Assay System from Promega (Cat. No. E1500). Cells were grown in Ham's F12 medium F12 nutrient mix, Ham's (Life Technologies, Cat. No. 11765054).
# CHO cells stably expressing Firefly luciferase (FLuc; which is cytoplasmic) or Gaussia luciferase (GLuc; which is secreted) as indicated were transfected using Lipofectamine3000 with an empty vector (EV) or vectors for Rheb WT, S21L, T23M, G29S, Y35N or E40K and treated with the mTOR inhibitor AZD8055 at 100 nM for the total duration where appropriate. Fluc and GLuc assays were performed at 24 h after transfection and then every 48 h for 7 days. Assay results were normalised to cell number. […]
# ExpiCHO-S™ cells = assay: Rabbit IgG secretion by ExpiCHO-S cells stably expressing Rheb variants (Easy-Titer Rabbit IgG Assay); format: cell-based; settings: single replicate; compared to Rheb-WT or Rheb-Y35N
# Method: Materials and Methods: ExpiCHO-S™ cells were purchased from ThermoFischer Scientific and cultured in ExpiCHO™ Expression Medium at 37° C. at 8% CO2. […] Transfected cells were grown in 600 μg/mL […] for 6 weeks. Surviving cells were plated as single cells in a 96-well plate and monoclonal colonies selected for FLAG-Rheb expression.
# Rabbit IgG secretion was determined using the ExpiCHO™ Expression system according to the manufacturer's instructions. Briefly, ExpiCHO™ cells expressing either endogenous Rheb or stably expressing exogenous Rheb were seeded at 6×10^6 cells/mL in 25 mL of ExpiCHO™ Expression Medium and transfected with 20 μg of a pcDNA3.1 vector encoding heavy and light chains of Rabbit IgG at a 1:2 ratio of heavy chain:light chain using ExpiFectamine™ CHO Reagent. 24 hours after transfection, cells were feed with ExpiCHO™ Feed and ExpiFectamine™ CHO Enhancer and transferred to 32° C., 5% CO2. Cells were allowed to grow for 10 days with 100 μL samples taken every day. After 10 days, Cells were pelleted by centrifugation at 4000×g for 30 minutes at 4° C. and the supernatant filtered through a […] PVFD filter and collected. IgG yield was determined using Easy-Titer™ Rabbit IgG Assay kit and calculated from a standard curve.
substance,measurement,setting,value
"Rheb-T23M: human Rheb protein with a methionine variant at residue 23 (T23M), SEQ ID NO. 3",increase in secreted Gaussia luciferase,"[1]; day 7, normalised to cell number",3 fold
same,rate of secretion of GLuc,"[1]; monitored every 4 h from 24 h to 60 h, compared to Rheb-Y35N",higher
same,rate of IgG secretion determined daily over 10 days,ExpiCHO-S™ cells,maintain a constant rate of IgG secretion over a longer period
